Earlier results on five molecules are cited in patent US20080139497A1, “Use of ATP in controlled regional reperfusion as treatment during acute myocardial infarction” (priority 2006, published 2008).

Like-named read-outs stand apart in the source and are kept apart here.

The conditions of series [1]: small amount, exogenously administered, hypoxic myocardium.
The test system of series [2] is cultured myocardial cells. To be noted: addition to cultured myocardial cells.
The conditions of series [3]: injected into isolated nonperfused hypothermic dog hearts.
In another series the test system is isolated muscle fibers. The settings on record: externally added.
The conditions of series [4]: infusion; after hemorrhagic shock, severe burns, sepsis-peritonitis, post-ischemic hepatic failure, endotoxin shock.
For series [5] the following is noted: after acute renal failure in rats.
The conditions of series [6]: after acute renal failure in mini-pigs.
For series [7] the following is noted: added to the perfusate.
The conditions of series [8]: from a toxic injury.
The conditions of series [9]: following normothermic ischemia, infusion of low dose.
For series [10] the following is noted: following prolonged ischemia, infusion.
The conditions of series [11]: in man.
For series [12] the following is noted: infused into left coronary artery, patients with coronary artery disease.
For series [13] the following is noted: treatment after experimental acute myocardial ischemia.

In the case of `Nc1ncnc2c1ncn2[C@@H]1O[C@H](COP(=O)(O)OP(=O)(O)O)[C@@H](O)[C@H]1O` [ADP], the “ATP and total adenine nucleotide content” value in series [1] is “not”.

Turning to `Nc1ncnc2c1ncn2[C@@H]1O[C@H](COP(=O)(O)O)[C@@H](O)[C@H]1O` [AMP], in series [1], the “ATP and total adenine nucleotide content” value is “not”. The ATP content result in [2] is “neither adenosine nor AMP produced this effect”.

On to `Nc1ncnc2c1ncn2[C@@H]1O[C@H](COP(=O)(O)OP(=O)(O)OP(=O)(O)O)[C@@H](O)[C@H]1O` [ATP, adenosine 5′-triphosphate], for which the “nucleotide and phosphocreatine levels” value in series [3] was “improved nucleotide and phosphocreatine levels”. In series [1], the “ATP and total adenine nucleotide content” value was “increased the ATP and total adenine nucleotide content”. Also, the contraction entry in the series on isolated muscle fibers was “induced contraction”. Besides, in [2], the ATP content result was “caused an increase in ATP content”.

Turning to `Nc1ncnc2c1ncn2[C@@H]1O[C@H](CO)[C@@H](O)[C@H]1O` [adenosine], the ATP content result in series [2] is listed as “neither adenosine nor AMP produced this effect”.

As for ATP-MgCl2, in series [4], the survival of animals result was “proved beneficial for the survival of animals”. In addition, the “recovery of renal function” value in [5] and in series [6] was “accelerate the recovery of renal function” in each case. The “salvage of kidneys subjected to warm ischemia” value in series [7] is “could be salvaged”. Also, in series [8], the renal recovery result was “effective in hastening renal recovery”. In addition, where the note is “during hemorrhagic shock, exogenously administered”, the “ornithine metabolism and tissue lactate level” value was “can reverse the inhibition of ornithine metabolism and the change in tissue lactate level”. The tissue lactate production entry (infused) was “decreased tissue lactate production”. Moreover, the myocardial recovery entry in series [9] is on record as “improved myocardial recovery”. For the same molecule, the myocardial performance entry in series [10] is “can improve myocardial performance”. The “safety and hemodynamic response” value in [11] is “has been demonstrated”. Also, the myocardial oxygen consumption result in [12] is given as “reduction of myocardial oxygen consumption”. Also, the “protection of the heart from ischemia” value in series [13] is recorded as “protects the heart from the adverse effects of ischemia”.
